US8344010B2, “Fused imidazole derivatives as TRPV3 antagonist” (Glenmark Pharmaceuticals S.A., priority 2008, dated 2013)

Biological target: T1, Human TRPV3 (Homo sapiens, UniProt Q8NET8)
T1 construct: expressed in transfected cells; host or cells: CHO cells (selected with G-418)
T1 sequence (Q8NET8 1-790): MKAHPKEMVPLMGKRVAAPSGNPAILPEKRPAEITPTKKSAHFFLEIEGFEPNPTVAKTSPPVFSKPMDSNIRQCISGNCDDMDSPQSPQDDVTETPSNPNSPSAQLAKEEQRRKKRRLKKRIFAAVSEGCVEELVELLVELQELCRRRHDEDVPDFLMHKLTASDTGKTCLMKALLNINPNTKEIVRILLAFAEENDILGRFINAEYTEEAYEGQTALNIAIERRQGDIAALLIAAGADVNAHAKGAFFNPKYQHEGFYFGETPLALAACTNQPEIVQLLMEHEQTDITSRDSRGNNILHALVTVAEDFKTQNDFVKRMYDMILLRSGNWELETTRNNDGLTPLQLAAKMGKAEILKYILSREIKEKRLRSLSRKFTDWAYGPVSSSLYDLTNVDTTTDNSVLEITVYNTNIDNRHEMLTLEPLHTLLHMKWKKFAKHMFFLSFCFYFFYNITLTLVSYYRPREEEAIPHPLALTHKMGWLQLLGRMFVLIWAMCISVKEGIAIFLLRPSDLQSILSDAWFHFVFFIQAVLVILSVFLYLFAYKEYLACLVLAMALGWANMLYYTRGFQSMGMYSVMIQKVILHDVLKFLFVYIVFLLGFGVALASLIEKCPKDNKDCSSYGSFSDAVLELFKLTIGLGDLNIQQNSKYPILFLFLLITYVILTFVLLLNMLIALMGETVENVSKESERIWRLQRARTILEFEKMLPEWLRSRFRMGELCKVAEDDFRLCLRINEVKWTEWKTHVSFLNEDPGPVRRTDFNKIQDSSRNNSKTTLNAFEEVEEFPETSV
Assay: 45Calcium uptake assay: inhibition of 2-APB induced cellular uptake of radioactive calcium
Assay type: cell-based
Settings: human TRPV3 expressing CHO cells, 2-APB 500 μM; for inhibition at 1 µM: 1 μM test compound, read-out: Percentage Inhibition (1 μM); for inhibition at 10 µM: 10 μM test compound, read-out: Percentage Inhibition (10 μM); for IC50: class symbol
Summary of the method: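 CHO cells expressing human TRPV3 were preincubated with compound for 10 min (0.5% DMSO final), then given 500 μM 2-APB plus 5 μCi/ml 45Ca2+ for 4 min. Lysate radioactivity was counted by scintillation; responses as % of maximal without antagonist, with IC50 by nonlinear regression.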

| inhibition at 1 µM | inhibition at 10 µM | IC50 | Compound |
| --- | --- | --- | --- |
| 32.7% | 95.5% |  | COc1cccc(/C=C/c2nc3cc(F)c(F)cc3n2-c2ccc(C#N)cn2)c1O [Example 69, 6-{5,6-Difluoro-2-[(E)-2-(2-hydroxy-3-methoxyphenyl)vinyl]-1H-benzimidazol-1-yl}nicotinonitrile] |
| 95.9% | 97.6% | 100 to 500 nM | COc1cccc(/C=C/c2nc3cc(Cl)ccc3n2-c2ccc(C#N)cn2)c1OC1CCCC1 [Example 55, 6-{5-chloro-2-[(E)-2-(2-cyclopentyloxy-3-methoxyphenyl)vinyl]-1H-benzimidazol-1-yl}nicotinonitrile] |
| 94.8% | 97.4% | 100 to 500 nM | COc1cccc(/C=C/c2nc3ccccc3n2-c2ccc(C#N)cn2)c1OCC(C)C [Example 11, 6-(2-{(E)-2-[3-methoxy-2-(2-methylpropoxy)phenyl]ethenyl}-1H-benzimidazol-1-yl)pyridine-3-carbonitrile] |
| 22.4% | 79.7% |  | COc1cccc(/C=C/c2nc3ccccc3n2-c2nccs2)c1OC1CCCC1 [Example 47, 2-[(E)-2-(2-Cyclopentyloxy-3-methoxyphenyl)vinyl]-1-(1,3-thiazol-2-yl)-1H-benzimidazole] |
| 79.7% | 97.9% | > 500 nM | COc1cccc(/C=C/c2nc3ccccc3n2-c2ccc(C#N)cn2)c1OC(C)C [Example 9, 6-{2-[(E)-2-(2-Isopropoxy-3-methoxyphenyl)vinyl]-1H-benzimidazol-1-yl}nicotinonitrile] |
| 97.1% | 98.1% | 50 to 100 nM | CCCCCOc1c(/C=C/c2nc3cccnc3n2-c2ccc(C#N)cn2)cccc1OC(F)F [Example 96, 6-(2-{(E)-2-[3-(Difluoromethoxy)-2-pentyloxyphenyl]vinyl}-3H-imidazo[4,5-b]pyridin-3-yl)nicotinonitrile] |
| 96.3% | 97.9% | 100 to 500 nM | COc1cccc(/C=C/c2nc3ccc(OC(F)F)cc3n2-c2ccc(C#N)cn2)c1OC1CCCC1 [Example 58, 6-{6-(Difluoromethoxy)-2-[(E)-2-(2-[cyclopentyloxy]-3-methoxyphenyl)vinyl]-1H-benzimidazol-1-yl}nicotinonitrile] |
| 95.3% | 97.7% | 50 to 100 nM | COc1cccc(/C=C/c2nc3ccc(Cl)cc3n2-c2ccc(C#N)cn2)c1OC1CCCC1 [Example 54, 6-{6-Chloro-2-[(E)-2-(2-cyclopentyloxy-3-methoxyphenyl)vinyl]-1H-benzimidazol-1-yl}nicotinonitrile] |
| 53.7% | 79.4% |  | COc1cccc(/C=C/c2nc3cc(Cl)c(C(F)(F)F)cc3n2-c2ccc(C#N)cn2)c1OC1CCCC1 [Example 71, 6-{5-Chloro-2-[(E)-2-(2-cyclopentyloxy-3-methoxyphenyl)vinyl]-6-(trifluoromethyl)-1H-benzimidazol-1-yl}nicotinonitrile] |
| 92.7% | 96.8% | 50 to 100 nM | CCCCCOc1c(/C=C/c2nc3cc(F)cc(F)c3n2-c2ccc(C#N)cn2)cccc1OC [Example 78, 6-{5,7-Difluoro-2-[(E)-2-(2-pentyloxy-3-methoxyphenyl)vinyl]-1H-benzimidazol-1-yl}nicotinonitrile] |

| Compound | inhibition at 1 µM | inhibition at 10 µM | IC50 |
| --- | --- | --- | --- |
| COc1cccc(/C=C/c2nc3cc(F)c(F)cc3n2-c2ccc(C#N)cn2)c1OCC(C)C [Example 66, 6-{5,6-Difluoro-2-[(E)-2-(2-isobutoxy-3-methoxyphenyl)vinyl]-1H-benzimidazol-1-yl}nicotinonitrile] | 98.6% | 99.5% | 100 to 500 nM |
| CCCCOc1c(/C=C/c2nc3cc(F)c(F)cc3n2-c2ccc(C#N)cn2)cccc1OC [Example 64, 6-{2-[(E)-2-(2-Butoxy-3-methoxyphenyl)vinyl]-5,6-difluoro-1H-benzimidazol-1-yl}-nicotinonitrile] | 96.4% | 99.9% | 100 to 500 nM |
